The values that follow come from publication PMC12163657 (ACS Omega, 2025).

Data set [1] has as its target T1, ERα (Homo sapiens, UniProt P03372).
T1 sequence (P03372 1-595): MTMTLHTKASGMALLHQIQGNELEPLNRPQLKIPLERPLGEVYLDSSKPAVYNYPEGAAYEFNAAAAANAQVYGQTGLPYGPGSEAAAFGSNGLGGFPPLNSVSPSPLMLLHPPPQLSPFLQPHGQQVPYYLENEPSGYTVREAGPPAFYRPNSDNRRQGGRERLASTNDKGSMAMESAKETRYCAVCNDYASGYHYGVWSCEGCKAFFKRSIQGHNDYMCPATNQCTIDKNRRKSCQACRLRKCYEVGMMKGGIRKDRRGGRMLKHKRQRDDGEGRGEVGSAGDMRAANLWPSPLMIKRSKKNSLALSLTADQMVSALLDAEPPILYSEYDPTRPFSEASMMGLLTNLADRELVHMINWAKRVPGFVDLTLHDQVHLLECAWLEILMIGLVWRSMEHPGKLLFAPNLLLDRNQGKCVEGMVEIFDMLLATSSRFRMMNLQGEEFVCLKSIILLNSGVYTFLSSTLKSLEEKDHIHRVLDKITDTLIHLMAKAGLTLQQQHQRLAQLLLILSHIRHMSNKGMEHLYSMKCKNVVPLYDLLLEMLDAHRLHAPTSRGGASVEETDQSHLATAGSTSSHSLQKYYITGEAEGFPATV
The data set is described as follows: Alkaline phosphatase. The class given is cell-based. The note with it: Ishikawa, read-out: AP % E max, Ishikawa (ECC-1) cells, agonist mode, 72 h.

The target in the next data set is T2, ERα LBD (Homo sapiens, UniProt P03372).
T2 sequence (P03372 311-547 limits assumed): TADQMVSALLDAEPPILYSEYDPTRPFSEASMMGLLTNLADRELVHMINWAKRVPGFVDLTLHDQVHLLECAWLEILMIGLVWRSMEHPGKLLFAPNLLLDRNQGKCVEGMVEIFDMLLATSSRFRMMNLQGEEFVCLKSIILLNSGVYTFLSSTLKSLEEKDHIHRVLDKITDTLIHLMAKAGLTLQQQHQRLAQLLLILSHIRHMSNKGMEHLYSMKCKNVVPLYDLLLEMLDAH
The data set is described as follows: LanthaScreen TR-FRET ERα competitive binding assay.

For data set [2], the target named is T1, ERα. Briefly: Alkaline phosphatase. The class given is cell-based.
Data set [3] is described as follows: Mouse hepatocyte stability. The class given is in vitro ADME. The conditions noted are these: hepatocytes.
Data set [4] in a line: Human hepatocyte stability. The data set is classed as in vitro ADME. The conditions noted are these: hepatocytes.
Data set [5] in a line: Plasma protein binding, rapid equilibrium dialysis, mouse plasma. The class given is in vitro ADME. The note with it: undiluted plasma.
Data set [6] can be described thus: In vivo mouse oral single dose PK. The note with it: for total AUCinf / free AUCinf: oral single dose; for free AUCinf: estimated based on the percent free fraction; for Cmax / half-life: plasma, po.

`C[C@@H]1Cc2c([nH]c3ccccc23)[C@@H](c2ccc(CCCN3CC(CF)C3)cc2)N1CC(C)(C)F` [compound 22, C[C@@H]1Cc2c([nH]c3ccccc23)[C@H](N1CC(C)(C)F)c1ccc(cc1)CCCN1CC(CF)C1]: at ERα [1], the Emax is over 50%. On ERα LBD, this compound gave an IC50 of 1.58 nM.

On to `CCCN1CC(Cc2ccc([C@@H]3c4[nH]c5ccccc5c4C[C@@H](C)N3CC(C)(C)F)cc2)C1` [compound 24, CCCN1CC(C1)Cc1ccc(cc1)[C@H]1N(CC(C)(C)F)[C@H](C)Cc2c1[nH]c1ccccc21], for which the figures for the IC50 on ERα [2] and on ERα LBD were 3.16 nM and 3.98 nM, respectively. Besides, the Emax on ERα [1] was 8.5%.

`C[C@@H]1Cc2c([nH]c3ccccc23)[C@@H](c2ccc(CCCN3CC(CF)C3)c(F)c2)N1CC(C)(C)F` [compound 25, C[C@@H]1Cc2c([nH]c3ccccc23)[C@H](N1CC(C)(C)F)c1ccc(c(c1)F)CCCN1CC(CF)C1]: the figures for the IC50 against ERα [2] and on ERα LBD were 7.94 nM and 3.98 nM, respectively. The Emax at ERα [1] is 22%.

For the compound `C[C@@H]1Cc2c([nH]c3ccccc23)[C@@H](c2ccc(OCCN3CC(CF)C3)c(F)c2)N1CC(C)(C)F` [compound 26, C[C@@H]1Cc2c([nH]c3ccccc23)[C@H](N1CC(C)(C)F)c1ccc(c(c1)F)OCCN1CC(CF)C1], the values for the half-life in data set [3] and in data set [4] were 227 min and 273 min, respectively. The values for the hepatocyte CLint in data set [3] and in data set [4] were 6.1 µL/min/1e6 cells and 5.1 µL/min/1e6 cells, respectively. For the same compound, the IC50 on ERα [2] is 2 nM; on ERα LBD, 2.51 nM. Moreover, the Emax at ERα [1] turned out to be 2.1%.

Take `CCCN1CC(Cc2ccc([C@@H]3c4[nH]c5ccccc5c4C[C@@H](C)N3CC(C)(C)F)cc2F)C1` [compound 27, CCCN1CC(C1)Cc1ccc(cc1F)[C@H]1N(CC(C)(C)F)[C@H](C)Cc2c1[nH]c1ccccc21]: the half-maximal inhibitory concentration (IC50) was 5.01 nM at ERα [2] and 2 nM on ERα LBD. Also, the Emax on ERα [1] turned out to be 7.4%.

`CCCN1CC(Oc2ccc([C@@H]3c4[nH]c5ccccc5c4C[C@@H](C)N3CC(C)(C)F)cc2F)C1` [compound 28, CCCN1CC(C1)Oc1ccc(cc1F)[C@H]1N(CC(C)(C)F)[C@H](C)Cc2c1[nH]c1ccccc21]: the IC50 at ERα [2] was 10 nM; at ERα LBD it was 3.98 nM. Further, the Emax at ERα [1] worked out at 3.1%.

For the compound `C[C@@H]1Cc2c([nH]c3ccccc23)[C@@H](c2c(F)cc(CCCN3CC(CF)C3)cc2F)N1CC(C)(C)F` [compound 29, C[C@@H]1Cc2c([nH]c3ccccc23)[C@H](N1CC(C)(C)F)c1c(cc(cc1F)CCCN1CC(CF)C1)F], the IC50 at ERα LBD is 2.51 nM.

In data set [3], `C[C@@H]1Cc2c([nH]c3ccccc23)[C@@H](c2c(F)cc(OCCN3CC(CF)C3)cc2F)N1CC(C)(C)F` [compound 30, C[C@@H]1Cc2c([nH]c3ccccc23)[C@H](N1CC(C)(C)F)c1c(cc(cc1F)OCCN1CC(CF)C1)F] gave a half-life of over 360 min and a hepatocyte CLint of under 3.9 µL/min/1e6 cells. In data set [4], this compound had a half-life of 270 min and a hepatocyte CLint of 5.1 µL/min/1e6 cells. The fraction unbound at 4 h, 1 µM in data set [5] was 0.0004. In data set [6], the “total AUCinf” value came to 2090 ng·h/mL, the “free AUCinf” value was 0.8 ng·h/mL, the Cmax is 112 ng/mL and the half-life was 660 min.

On to `CCCN1CC(Cc2cc(F)c([C@@H]3c4[nH]c5ccccc5c4C[C@@H](C)N3CC(C)(C)F)c(F)c2)C1` [compound 31, CCCN1CC(C1)Cc1cc(c(c(c1)F)[C@H]1N(CC(C)(C)F)[C@H](C)Cc2c1[nH]c1ccccc21)F], for which the half-life in data set [3] and in data set [4] was over 360 min in each case. The hepatocyte CLint in data set [3] and in data set [4] was under 3.9 µL/min/1e6 cells throughout. Besides, the IC50 is 1.58 nM against ERα [2] and 5.01 nM at ERα LBD. Moreover, on ERα [1], the Emax amounted to 5.4%.

For `CCCN1CC(Oc2cc(F)c([C@@H]3c4[nH]c5ccccc5c4C[C@@H](C)N3CC(C)(C)F)c(F)c2)C1` [compound 32, CCCN1CC(C1)Oc1cc(c(c(c1)F)[C@H]1N(CC(C)(C)F)[C@H](C)Cc2c1[nH]c1ccccc21)F], in data set [3], the half-life was over 360 min and the hepatocyte CLint is under 3.9 µL/min/1e6 cells. Also, in data set [4], the half-life was found to be 324 min and the hepatocyte CLint came to 4.3 µL/min/1e6 cells. For the same compound, the fraction unbound at 4 h, 1 µM in data set [5] stood at 0.0001. Further, in data set [6], the “total AUCinf” value was 2743 ng·h/mL, the “free AUCinf” value was 0.3 ng·h/mL, the Cmax is 219 ng/mL and the half-life is 900 min.

With `C[C@@H]1Cc2c([nH]c3ccccc23)[C@@H](c2ccc(OC3CN(C)C3)cc2)N1CC(C)(C)F` [compound 33, C[C@@H]1Cc2c([nH]c3ccccc23)[C@H](N1CC(C)(C)F)c1ccc(cc1)OC1CN(C)C1], the IC50 at ERα [2] is 7.94 nM; at ERα LBD, 0.501 nM. Besides, the Emax at ERα [1] is 10%.

Take `CCN1CC(Oc2ccc([C@@H]3c4[nH]c5ccccc5c4C[C@@H](C)N3CC(C)(C)F)cc2)C1` [compound 34, CCN1CC(C1)Oc1ccc(cc1)[C@H]1N(CC(C)(C)F)[C@H](C)Cc2c1[nH]c1ccccc21]: on ERα [1], the Emax is 4.6%. On ERα LBD, this compound had an IC50 of 0.501 nM.

Regarding `CCCCN1CC(Oc2ccc([C@@H]3c4[nH]c5ccccc5c4C[C@@H](C)N3CC(C)(C)F)cc2)C1` [compound 35, CCCCN1CC(C1)Oc1ccc(cc1)[C@H]1N(CC(C)(C)F)[C@H](C)Cc2c1[nH]c1ccccc21], the Emax at ERα [1] was 27%. In addition, the half-inhibitory concentration (IC50) on ERα LBD is 1.58 nM.

Consider `CCCCCN1CC(Oc2ccc([C@@H]3c4[nH]c5ccccc5c4C[C@@H](C)N3CC(C)(C)F)cc2)C1` [compound 36, CCCCCN1CC(C1)Oc1ccc(cc1)[C@H]1N(CC(C)(C)F)[C@H](C)Cc2c1[nH]c1ccccc21], for which the Emax at ERα [1] amounted to 93%. Moreover, the IC50 on ERα LBD was 2.51 nM.

Turning to `CCCN1CC(Oc2ccc([C@@H]3c4[nH]c5ccccc5c4C[C@@H](C)N3C[C@H](C)CO)cc2)C1` [compound 37, CCCN1CC(C1)Oc1ccc(cc1)[C@H]1N(C[C@H](C)CO)[C@H](C)Cc2c1[nH]c1ccccc21], the IC50 on ERα [2] was 10 nM; on ERα LBD, 0.501 nM. The Emax on ERα [1] stood at 0.7%.

On to `CCCN1CC(Oc2ccc([C@@H]3c4[nH]c5ccccc5c4C[C@@H](C)N3CC(F)(F)CO)cc2)C1` [compound 38, CCCN1CC(C1)Oc1ccc(cc1)[C@H]1N(CC(F)(F)CO)[C@H](C)Cc2c1[nH]c1ccccc21], for which the half-life was 230 min in data set [3] and 76 min in data set [4]. In addition, the figures for the hepatocyte CLint in data set [3] and in data set [4] were 6 µL/min/1e6 cells and 18.2 µL/min/1e6 cells, respectively. Moreover, the half-inhibitory concentration (IC50) is 0.158 nM at ERα [2] and 1 nM at ERα LBD. In addition, the Emax at ERα [1] worked out at 0%.

For `CCCN1CC(Oc2ccc([C@@H]3c4[nH]c5ccccc5c4C[C@@H](C)N3CCC(C)(C)O)cc2)C1` [compound 39, CCCN1CC(C1)Oc1ccc(cc1)[C@H]1N(CCC(C)(C)O)[C@H](C)Cc2c1[nH]c1ccccc21], the IC50 was 398 nM on ERα [2] and 1.26 nM on ERα LBD. Further, the Emax on ERα [1] was determined as 2%.

Consider `CCCN1CC(Oc2ccc([C@@H]3c4[nH]c5ccccc5c4C[C@@H](C)N3C[C@@H](C)CO)cc2)C1` [compound 40, CCCN1CC(C1)Oc1ccc(cc1)[C@H]1N(C[C@@H](C)CO)[C@H](C)Cc2c1[nH]c1ccccc21], for which the results for the half-life in data set [3] and in data set [4] were 183 min and 157 min, respectively. Moreover, the hepatocyte CLint came to 7.6 µL/min/1e6 cells in data set [3] and 8.8 µL/min/1e6 cells in data set [4]. Besides, the IC50 against ERα [2] was 3.16 nM; on ERα LBD it was 1.26 nM. Also, the Emax at ERα [1] is 0.4%.

Take `CCCN1CC(Oc2ccc([C@@H]3c4[nH]c5ccccc5c4C[C@@H](C)N3CC(F)(F)COC)cc2)C1` [compound 41, CCCN1CC(C1)Oc1ccc(cc1)[C@H]1N(CC(F)(F)COC)[C@H](C)Cc2c1[nH]c1ccccc21]: the values for the half-life in data set [3] and in data set [4] were 76 min and 99 min, respectively. For the same compound, the results for the hepatocyte CLint in data set [3] and in data set [4] were 18.2 µL/min/1e6 cells and 14.1 µL/min/1e6 cells, respectively. The IC50 against ERα [2] was 5.01 nM; at ERα LBD it was 1 nM. Further, the “potency loss in AP (antag.) relative to 38” value at ERα [2] (replacing OH with OMe) was 1.5 log. The Emax on ERα [1] was determined as 0.9%.

For `CCCN1CC(Oc2ccc([C@@H]3c4[nH]c5ccccc5c4C[C@@H](C)N3CCC(C)(C)F)cc2)C1` [compound 42, CCCN1CC(C1)Oc1ccc(cc1)[C@H]1N(CCC(C)(C)F)[C@H](C)Cc2c1[nH]c1ccccc21], the IC50 against ERα [2] is 50.1 nM; on ERα LBD, 15.8 nM. Further, the Emax on ERα [1] came to 0%.

As to `C[C@]12CC[C@@H]3c4ccc(O)cc4C[C@@H](CCCCCCCCC[S+]([O-])CCCC(F)(F)C(F)(F)F)[C@H]3[C@@H]1CC[C@@H]2O` (stereo partly shown) [fulvestrant 3, fulvestrant, reference compound], the Emax at ERα [1] was found to be 0.1%.
